# Results reported in patent publication US10329289B2, “6,7-dihydro-5H-pyrrolo[3,4-B]pyridin-5-one allosteric modulators of the M4 muscarinic acetylcholine receptor” (Merck Sharp & Dohme Corp., priority 2015, dated 2019).
# pEC50: −log10 of the molar value.
# Target: T1, human M4 muscarinic acetylcholine receptor (Homo sapiens, UniProt P08173)
# T1 construct: expressed in transfected cells; host or cells: CHO-K1
# T1 sequence (P08173 1-479): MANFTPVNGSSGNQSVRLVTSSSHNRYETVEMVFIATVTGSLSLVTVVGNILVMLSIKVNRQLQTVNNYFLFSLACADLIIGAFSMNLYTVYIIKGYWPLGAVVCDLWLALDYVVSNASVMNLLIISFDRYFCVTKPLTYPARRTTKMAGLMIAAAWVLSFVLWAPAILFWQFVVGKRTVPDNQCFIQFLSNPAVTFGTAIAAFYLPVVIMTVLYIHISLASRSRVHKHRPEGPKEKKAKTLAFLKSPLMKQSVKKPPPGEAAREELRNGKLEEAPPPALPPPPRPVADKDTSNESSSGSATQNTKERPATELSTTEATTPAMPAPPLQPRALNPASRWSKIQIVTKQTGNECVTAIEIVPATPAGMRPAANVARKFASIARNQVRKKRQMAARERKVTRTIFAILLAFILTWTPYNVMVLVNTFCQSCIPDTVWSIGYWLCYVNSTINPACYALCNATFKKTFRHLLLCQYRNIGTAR
# Assay: human FLIPR-based M4 PAM assay (Ca2+ mobilization, CHO-K1 cells with human M4 receptor and Gαqi5)
# Type: cell-based
# Details: acetylcholine at 20% of maximum response, read-out: M4 PAM IP
# Summary of the method: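 CHO-K1 cells stably expressing human M4 and chimeric Gαqi5 were dye-loaded ~1 h at 37 °C and read for Ca2+ fluorescence. Compound followed by acetylcholine at an EC20 (sometimes an EC70 third addition); inflection point from a 4-parameter logistic fit.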
row,Structure (SMILES),pEC50
1,"Cc1c(N2CCC(OC[C@]3(C)CC3(F)F)CC2)nc2c(c1C)C(=O)N(CCO)C2 [Example 265C, (S)-2-(4-((2,2-difluoro-1-methylcyclopropyl)methoxy)piperidin-1-yl)-6-(2-hydroxyethyl)-3,4-dimethyl-6,7-dihydro-5H-pyrrolo[3,4-b]pyridin-5-one]",7.39
2,"Cc1c(N2CCC(Oc3ccc4c(cnn4C)c3)CC2)nc2c(c1C)C(=O)N(CCO)C2 [Example 265D, 6-(2-hydroxyethyl)-3,4-dimethyl-2-(4-((1-methyl-1H-indazol-5-yl)oxy)piperidin-1-yl)-6,7-dihydro-5H-pyrrolo[3,4-b]pyridin-5-one]",7.19
3,"Cc1c(N2CCC(Oc3ccc4c(c3)CCOC4)CC2)nc2c(c1C)C(=O)N(CCO)C2 [Example 265F, 6-(2-hydroxyethyl)-2-(4-(isochroman-6-yloxy)piperidin-1-yl)-3,4-dimethyl-6,7-dihydro-5H-pyrrolo[3,4-b]pyridin-5-one]",7.34
4,"Cc1c(N2CCC(Oc3ccc(F)cc3)CC2)nc2c(c1C)C(=O)N(CCO)C2 [Example 266, 2-(4-(4-fluorophenoxy)piperidin-1-yl)-6-(2-hydroxyethyl)-3,4-dimethyl-6,7-dihydro-5H-pyrrolo[3,4-b]pyridin-5-one]",6.98
5,"Cc1c(N2CCC(OCC3(C)CC3)CC2)nc2c(c1C)C(=O)N(CCO)C2 [Example 267, 6-(2-hydroxyethyl)-3,4-dimethyl-2-(4-((1-methylcyclopropyl)methoxy)piperidin-1-yl)-6,7-dihydro-5H-pyrrolo[3,4-b]pyridin-5-one]",7.47
6,"CCc1cc2c(nc1N1CCC(OCC3(C)CC3)CC1)CN(CCO)C2=O [Example 268, 3-ethyl-6-(2-hydroxyethyl)-2-(4-((1-methylcyclopropyl)methoxy)piperidin-1-yl)-6,7-dihydro-5H-pyrrolo[3,4-b]pyridin-5-one]",7.06
7,"COc1ccc(OC2CCN(c3nc4c(cc3C)C(=O)N(C3CC3)C4)CC2)cn1 [Example 269, 6-Cyclopropyl-2-(4-((6-methoxypyridin-3-yl)oxy)piperidin-1-yl)-3-methyl-6,7-dihydro-5H-pyrrolo[3,4-b]pyridin-5-one]",7.19
8,"COc1ccc(OC2CCN(c3nc4c(cc3C)C(=O)NC4CO)CC2)cn1 (stereo not shown) [Example 270, 7-(Hydroxymethyl)-2-(4-((6-methoxypyridin-3-yl)oxy)piperidin-1-yl)-3-methyl-6,7-dihydro-5H-pyrrolo[3,4-b]pyridin-5-one]",7.32
9,"Cc1cc2c(nc1N1CCC(Oc3ccc4c(cnn4C)c3)CC1)CN(CO)C2=O [Example 272, 6-(Hydroxymethyl)-3-methyl-2-(4-((1-methyl-1H-indazol-5-yl)oxy)piperidin-1-yl)-6,7-dihydro-5H-pyrrolo[3,4-b]pyridin-5-one]",6.40

# Next, values leading:
row,pEC50,Structure (SMILES)
1,7.36,"Cc1c(N2CCC(Oc3ccc4c(c3)OCC4)CC2)nc2c(c1C)C(=O)N(CCO)C2 [Example 266A, 2-(4-((2,3-dihydrobenzofuran-6-yl)oxy)piperidin-1-yl)-6-(2-hydroxyethyl)-3,4-dimethyl-6,7-dihydro-5H-pyrrolo[3,4-b]pyridin-5-one]"
2,7.28,"Cc1c(N2CCC(Oc3ccc4c(c3)COC4)CC2)nc2c(c1C)C(=O)N(CC(=O)O)C2 [Example 266B, 2-(2-(4-((1,3-dihydro-2-benzofuran-5-yl)oxy)piperidin-1-yl)-3,4-dimethyl-5-oxo-5,7-dihydro-6H-pyrrolo[3,4-b]pyridin-6-yl)acetic acid]"
3,7.19,"Cc1c(N2CCC(Oc3ccc4c(c3)COC4)CC2)nc2c(c1C)C(=O)N([C@H](C)CO)C2 [Example 266C, (R)-2-(4-((1,3-dihydro-2-benzofuran-5-yl)oxy)piperidin-1-yl)-6-(1-hydroxypropan-2-yl)-3,4-dimethyl-6,7-dihydro-5H-pyrrolo[3,4-b]pyridin-5-one]"
4,7.37,"Cc1c(N2CCC(Oc3ccc4c(c3)COC4)CC2)nc2c(c1C)C(=O)N([C@@H](C)CO)C2 [Example 266D, (S)-2-(4-((1,3-dihydro-2-benzofuran-5-yl)oxy)piperidin-1-yl)-6-(1-hydroxypropan-2-yl)-3,4-dimethyl-6,7-dihydro-5H-pyrrolo[3,4-b]pyridin-5-one]"
5,6.80,"CCc1cc2c(nc1N1CC[C@H](OCC3(C)CC3)[C@@H](F)C1)CN(CCO)C2=O [Example 266E, 3-ethyl-2-((3S,4S)-3-fluoro-4-((1-methylcyclopropyl)methoxy)piperidin-1-yl)-6-(2-hydroxyethyl)-6,7-dihydro-5H-pyrrolo[3,4-b]pyridin-5-one]"
6,7.24,"CCc1cc2c(nc1N1CCC(Oc3ccc4c(c3)CCOC4)CC1)CN(CCO)C2=O [Example 266F, 3-ethyl-6-(2-hydroxyethyl)-2-(4-(isochroman-6-yloxy)piperidin-1-yl)-6,7-dihydro-5H-pyrrolo[3,4-b]pyridin-5-one]"
7,7.16,"Cc1c(N2CC[C@H](OCC3(C)CC3)[C@@H](F)C2)nc2c(c1C)C(=O)N(CCO)C2 [Example 266G, 2-((3S,4S)-3-fluoro-4-((1-methylcyclopropyl)methoxy)piperidin-1-yl)-6-(2-hydroxyethyl)-3,4-dimethyl-6,7-dihydro-5H-pyrrolo[3,4-b]pyridin-5-one]"
8,6.99,"CCc1cc2c(nc1N1CCC(Oc3ccc4c(c3)COCC4)CC1)CN(CCO)C2=O [Example 267A, 3-ethyl-6-(2-hydroxyethyl)-2-(4-(isochroman-7-yloxy)piperidin-1-yl)-6,7-dihydro-5H-pyrrolo[3,4-b]pyridin-5-one]"
9,7.10,"Cc1c(N2CCC(OCC3CCC3)CC2)nc2c(c1C)C(=O)N(CCO)C2 [Example 267B, 2-(4-(cyclobutylmethoxy)piperidin-1-yl)-6-(2-hydroxyethyl)-3,4-dimethyl-6,7-dihydro-5H-pyrrolo[3,4-b]pyridin-5-one]"
10,6.96,"CO[C@@H]1Cc2ccc(OC3CCN(c4nc5c(c(C)c4C)C(=O)N(CCO)C5)CC3)cc2C1 [Example 267C, (R)-6-(2-hydroxyethyl)-2-(4-((2-methoxy-2,3-dihydro-1H-inden-5-yl)oxy)piperidin-1-yl)-3,4-dimethyl-6,7-dihydro-5H-pyrrolo[3,4-b]pyridin-5-one]"
11,7.06,"CO[C@H]1Cc2ccc(OC3CCN(c4nc5c(c(C)c4C)C(=O)N(CCO)C5)CC3)cc2C1 [Example 267D, (S)-6-(2-hydroxyethyl)-2-(4-((2-methoxy-2,3-dihydro-1H-inden-5-yl)oxy)piperidin-1-yl)-3,4-dimethyl-6,7-dihydro-5H-pyrrolo[3,4-b]pyridin-5-one]"
12,7.16,"Cc1cc2c(nc1N1CC[C@@H](Oc3ccc4c(cnn4C)c3)[C@@H](F)C1)CN(CCO)C2=O [Example 267E, 2-((3S,4R)-3-fluoro-4-((1-methyl-1H-indazol-5-yl)oxy)piperidin-1-yl)-6-(2-hydroxyethyl)-3-methyl-6,7-dihydro-5H-pyrrolo[3,4-b]pyridin-5-one]"
13,7.77,"Cc1c(N2CC[C@@H](OCC3(C)CC3)[C@H](F)C2)nc2c(c1C)C(=O)N(CCO)C2 [Example 267F, 2-((3R,4R)-3-fluoro-4-((1-methylcyclopropyl)methoxy)piperidin-1-yl)-6-(2-hydroxyethyl)-3,4-dimethyl-6,7-dihydro-5H-pyrrolo[3,4-b]pyridin-5-one]"
14,6.77,"CCc1cc2c(nc1N1CCC(Oc3ccc4cnn(C)c4c3)CC1)CN(CCO)C2=O [Example 268A, 3-ethyl-6-(2-hydroxyethyl)-2-(4-((1-methyl-1H-indazol-6-yl)oxy)piperidin-1-yl)-6,7-dihydro-5H-pyrrolo[3,4-b]pyridin-5-one]"
15,7.20,"Cc1c(N2CCC(Oc3ccc4c(c3)COCC4)CC2)nc2c(c1C)C(=O)N(CCO)C2 [Example 268B, 6-(2-hydroxyethyl)-2-(4-(isochroman-7-yloxy)piperidin-1-yl)-3,4-dimethyl-6,7-dihydro-5H-pyrrolo[3,4-b]pyridin-5-one]"
16,7.28,"Cc1cc2c(nc1N1CCC(Oc3ccc4c(c3)COC4)CC1)CN([C@H](C)CO)C2=O [Example 268C, (R)-2-(4-((1,3-dihydro-2-benzofuran-5-yl)oxy)piperidin-1-yl)-6-(1-hydroxypropan-2-yl)-3-methyl-6,7-dihydro-5H-pyrrolo[3,4-b]pyridin-5-one]"
17,7.55,"Cc1cc2c(nc1N1CCC(Oc3ccc4c(c3)COC4)CC1)CN([C@@H](C)CO)C2=O [Example 268D, (S)-2-(4-((1,3-dihydro-2-benzofuran-5-yl)oxy)piperidin-1-yl)-6-(1-hydroxypropan-2-yl)-3-methyl-6,7-dihydro-5H-pyrrolo[3,4-b]pyridin-5-one]"
18,7.17,"Cc1c(N2CC[C@@H](Oc3ccc4c(cnn4C)c3)[C@@H](F)C2)nc2c(c1C)C(=O)N(CCO)C2 [Example 268E, 2-((3S,4R)-3-fluoro-4-((1-methyl-1H-indazol-5-yl)oxy)piperidin-1-yl)-6-(2-hydroxyethyl)-3,4-dimethyl-6,7-dihydro-5H-pyrrolo[3,4-b]pyridin-5-one]"
19,7.41,"Cc1c(N2CC[C@@H](OCC3(C)CC3)[C@@H](F)C2)nc2c(c1C)C(=O)N(CCO)C2 [Example 268F, 2-((3S,4R)-3-fluoro-4-((1-methylcyclopropyl)methoxy)piperidin-1-yl)-6-(2-hydroxyethyl)-3,4-dimethyl-6,7-dihydro-5H-pyrrolo[3,4-b]pyridin-5-one]"
